For test [1], the target named is T1, YerA (Bsu06560) (Bacillus subtilis, UniProt O34909).
T1 construct: full-length (Met1-Arg580), pET-28a(+), E. coli BL21(DE3), N-terminal His-tag cleaved by PreScission protease; monomer; assayed as apo or metal-reconstituted form
The experiment in a line: thermal shift assay (SYPRO Orange). The class given is binding. The following applies: apo-YerA (without metal reconstitution) 15 uM, 3 mM ligand.

The target in test [2] is T1, YerA (Bsu06560). The experiment in a line: LC-Q-TOF-MS detection of inosine product. The following applies: metal-reconstituted holoenzyme, 5 h, 37 °C, 5 mM ligand; apo form without reconstitution inactive. The class given is biochemical.

Molecules are shown by their SMILES.

T1 sequence (O34909 whole entry): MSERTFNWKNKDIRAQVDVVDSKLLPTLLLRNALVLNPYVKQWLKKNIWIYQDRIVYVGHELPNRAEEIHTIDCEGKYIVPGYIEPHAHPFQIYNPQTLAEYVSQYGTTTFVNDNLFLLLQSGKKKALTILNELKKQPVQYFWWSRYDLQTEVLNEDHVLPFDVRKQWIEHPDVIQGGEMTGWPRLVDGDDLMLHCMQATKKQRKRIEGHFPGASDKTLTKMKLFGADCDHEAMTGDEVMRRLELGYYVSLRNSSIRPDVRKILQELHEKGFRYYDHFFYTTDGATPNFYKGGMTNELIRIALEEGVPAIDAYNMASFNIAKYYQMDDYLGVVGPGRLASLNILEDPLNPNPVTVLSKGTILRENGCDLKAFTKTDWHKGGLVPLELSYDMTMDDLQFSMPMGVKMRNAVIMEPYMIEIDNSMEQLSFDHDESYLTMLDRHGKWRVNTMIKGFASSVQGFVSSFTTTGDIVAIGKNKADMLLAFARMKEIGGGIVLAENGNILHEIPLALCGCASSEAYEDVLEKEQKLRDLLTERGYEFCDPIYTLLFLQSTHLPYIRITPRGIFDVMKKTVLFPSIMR

As for `CNc1ncnc2c1ncn2[C@@H]1O[C@H](CO)[C@@H](O)[C@H]1O` [N^6-mAdo, N^6-methyladenosine], the Tm shift at YerA (Bsu06560) [1] is 3 °C. In addition, the “LC-Q-TOF-MS detection of inosine product” value on YerA (Bsu06560) [2] is listed as “YerA deaminated the favored substrate N^6-mAdo to Ino after a 5-h reaction”.
